According to US20250161338A1, “Compounds for Anti-aging Intervention” (AGENCY FOR SCIENCE, TECHNOLOGY AND RESEARCH, priority 2022, published 2025):
Structures can show the parent of a compound that is named as a salt.

How the values were obtained:
[1] = test system: prototrophic yeast strain (CEN.PK113-7D); assay: Propidium iodide fluorescence-based CLS method in yeast (incl. high-throughput screening); format: cell-based, Saccharomyces cerevisiae; settings: concentration tested 100 μM; for Yeast CLS increase: Yes/No call of the screen; for PI intensity: solvent DMSO or water, chronological age point Day 7 (72 h growth = Day 1), lower = more survival;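 on PI intensity: untreated reference is eight DMSO and water control wells per plate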
Outline: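 CEN.PK113-7D aged in SD medium at 30 °C with compounds (rapamycin 0–10 nM; sugars 0–8 mM; screen at single concentrations). At each age point cells were stained with 5 μg/mL PI for 15 min; fluorescence was normalized to OD600, background-subtracted, and survival scaled against boiled-cell control.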

[2] = test system: prototrophic yeast strain (CEN.PK113-7D); assay: Yeast outgrowth in YPD liquid medium (CLS of aged cells); format: cell-based, Saccharomyces cerevisiae; settings: concentration tested 100 μM; OD600 nm after 24 h in YPD at 30° C.; age point day 14
Outline: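 Cultures aged at 30 °C in SD medium with double-diluted rapamycin (0–10 nM) or sugars/polyols (0–8 mM). On day 14, 3 µL of culture was transferred into 200 µL YPD and outgrowth read as OD600. Survival expressed relative to day 1 outgrowth (100%).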

Structure (SMILES) | Yeast CLS increase [1] | PI intensity [1] | Outgrowth [2]
COC(=O)CC(C)=O [Methyl acetylacetate] | No | 64,956.3 | 0.1
C[C@](N)(Cc1ccc(O)cc1)C(=O)O [Metyrosine, reference compound] | No | 76,947.2 | 0.1
CN(C)c1ccc(O)c2c1C[C@H]1C[C@H]3[C@H](N(C)C)C(O)=C(C(N)=O)C(=O)[C@@]3(O)C(O)=C1C2=O [Minocycline (hydrochloride), reference compound] |  | 71,078.2 | 0.1
C/C(=C\C(=O)OCCCCCCCCC(=O)O)C[C@@H]1OC[C@H](C[C@@H]2O[C@H]2[C@@H](C)[C@H](C)O)[C@@H](O)[C@H]1O [Mupirocin, reference compound] | No | 68,477.7 | 0.1
CN(C)c1nc2c(ncn2[C@@H]2O[C@H](CO)[C@@H](O)[C@H]2O)c(=O)[nH]1 [N2,N2-Dimethylguanosine] | No | 65,619.9 | 0.1
CC(=O)N[C@@H](Cc1ccc(O)cc1)C(=O)O [N-Acetyl-L-tyrosine] | No | 57,322.5 | 0.1
O=C1N[C@@H]2C(=C[C@H](O)[C@@H](O)[C@H]2O)c2cc3c(c(O)c21)OCO3 [Narciclasine] | No | 67,161.8 | 0.1
CC(C)(O)CCc1c(O)cc(O)c2c(=O)c(O)c(-c3ccc(O)cc3)oc12 [Noricaritin] | No | 77,179.8 | 0.1
Cn1cc(C(N)=O)ccc1=O [Nudifloramide] | No | 65,023.3 | 0.1
CCCCCCCCCCCCCCC(=O)O [Pentadecanoic acid] | No | 75,173.9 | 0.1
CC(O)Cn1cnc2c1c(=O)n(C)c(=O)n2C (centres unmarked) [Proxyphylline, reference compound] | No | 72,232.1 | 0.1
c1ncc2[nH]cnc2n1 [Purine] | No | 53,185.1 | 0.1
Cl.Cl.[O-][S+]1c2ccccc2N=C(N2CCN(CCOCCO)CC2)c2ccccc21 (centres unmarked) [Quetiapine sulfoxide (dihydrochloride)] | No | 68,761.6 | 0.1
C=C[C@H]1C[N@@]2CC[C@H]1C[C@H]2[C@H](O)c1ccnc2ccc(OC)cc12 [Quinine (hydrochloride dihydrate), reference compound] | No |  | 0.1
CO[C@H]1C[C@@H]2CC[C@@H](C)[C@@](O)(O2)C(=O)C(=O)N2CCCC[C@H]2C(=O)O[C@H]([C@H](C)C[C@@H]2CC[C@@H](O)[C@H](OC)C2)CC(=O)[C@H](C)/C=C(\C)[C@@H](O)[C@@H](OC)C(=O)[C@H](C)C[C@H](C)/C=C/C=C/C=C/1C [Rapamycin, reference compound] |  | 21,460.5 | 1.3
CC1=C(/C=C/C(C)=C/C=C/C(C)=C/C(=O)O)C(C)(C)CCC1 [Retinoic acid, reference compound] |  | 85,242.6 | 0.1
CC[C@H]1CN2CC[C@]3(C(=O)Nc4ccccc43)[C@@H]2C[C@@H]1/C(=C\OC)C(=O)OC [Rhynchophylline] | No | 55,562.5 | 0.1
CO[C@H]1/C=C/O[C@@]2(C)Oc3c(C)c([O-])c4c(O)c(cc(O)c4c3C2=O)NC(=O)/C(C)=C\C=C\[C@H](C)[C@H](O)[C@@H](C)[C@@H](O)[C@@H](C)[C@H](OC(C)=O)[C@@H]1C.[Na+] [Rifamycin (sodium), reference compound] | Yes | 39,446.0 | 0.6
C[C@H]1CNCCCN1S(=O)(=O)c1cccc2cncc(F)c12 [Ripasudil, reference compound] | No | 77,962.0 | 0.1

Structure (SMILES) | Yeast CLS increase [1] | PI intensity [1] | Outgrowth [2]
O=C(O)/C=C/CCCCCCCO [Royal Jelly acid] | No | 65,406.1 | 0.1
CC[C@@]1(O)C(=O)OCc2c1cc1n(c2=O)Cc2cc3c([N+](=O)[O-])cccc3nc2-1 [Rubitecan] | No | 57,075.3 | 0.1
COc1cc2c(c(OC)c1OC)-c1c(cc3c(c1OC)OCO3)C[C@H](C)[C@@](C)(O)C2 [Schisandrol B] | No | 80,051.7 | 0.1
C[Se]CC[C@H](N)C(=O)O [Selenomethionine] | Yes | 29,837.8 | 1.2
CN[C@@H]1C[C@H]2O[C@@](C)([C@@H]1OC)n1c3ccccc3c3c4c(c5c6ccccc6n2c5c31)C(=O)NC4 [Staurosporine] | No | 67,250.9 | 0.1
C[C@H](Cn1cnc2c(N)ncnc21)OCP(=O)(O)O.O [Tenofovir (hydrate), reference compound] | No | 76,065.0 | 0.1
CC(C)N1CCN(c2ccc(OCC3COC(Cn4cncn4)(c4ccc(Cl)cc4Cl)O3)cc2)CC1 (centres unmarked) [Terconazole, reference compound] | No | 72,350.0 | 0.1
Cc1nc(C)c(C)nc1C [Tetramethylpyrazine] | No | 62,003.6 | 0.1
Cc1ccc(C(C)C)c(O)c1 [Thymol] | No | 61,503.8 | 0.1
O=C(O)CCCCCCCCCCCC(=O)O [Tridecanedioic acid] | No | 80,407.7 | 0.1
O=c1ccn([C@@H]2O[C@H](CO)[C@@H](O)[C@H]2O)c(=O)[nH]1 [Uridine] | No | 84,894.9 | 0.1
O[C@H]([C@H](O)[C@@H]1CO1)[C@H]1CO1 [VAL-083] | No | 63,325.5 | 0.1
COc1cc(C(=O)O)ccc1O [Vanillic acid] | No | 64,546.4 | 0.1
COc1cc(O)c(C(C)=O)c(OC)c1 [Xanthoxylin] | No | 70,352.1 | 0.1
CCCCC[C@H](O)CC(=O)CCc1ccc(O)c(OC)c1 [[6]-Gingerol] | No | 61,395.3 | 0.1
N#CCCN [β-Aminopropionitrile] | No | 65,865.6 | 0.1
CC(=O)O[C@H]1CC[C@H]2[C@@H]3CCc4cc(O)ccc4[C@H]3CC[C@]12C [β-Estradiol 17-acetate] | Yes | 34,621.0 | 0.5
CC1(C)CCC2=C(O1)c1ccccc1C(=O)C2=O [β-Lapachone] | No | 67,892.9 | 0.1
